Measured values as given in patent US20240246918A1, “COMPOUNDS AND COMPOSITIONS AS EIF4E INHIBITORS AND THE USES THEREOF” (Ribometrix, Inc., priority 2022, published 2024).
pIC50: −log10 of the molar value. Where two headings read alike, the source gives them in different places.

Assays:
human eIF4E protein = target: T1, human eIF4E protein (Homo sapiens, UniProt P06730); experiment: Biochemical competitive binding assay (TR-FRET competition, EDA-m7GDP-ATTO-647N probe); settings: read-out: hEIF4E TR-FRET IC50
T1 construct: purchased Novus NBP-45314
T1 sequence (P06730 whole entry): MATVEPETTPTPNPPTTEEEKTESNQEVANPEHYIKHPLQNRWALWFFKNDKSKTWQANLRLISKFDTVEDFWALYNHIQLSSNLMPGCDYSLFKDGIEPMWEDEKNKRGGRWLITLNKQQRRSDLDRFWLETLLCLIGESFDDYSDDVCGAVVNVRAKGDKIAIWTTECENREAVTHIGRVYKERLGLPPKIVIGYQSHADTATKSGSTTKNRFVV
Outline: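 His-tagged human eIF4E (4 nM) was preincubated with Eu-anti-His antibody (2.5 nM) and added to compound (11-point, 4-fold dilutions) for 15 min. Then 5 nM EDA-m7GDP-ATTO-647N was added for 15 min, in HEPES pH 7.5, 100 mM KCl. The 665/620 TR-FRET ratio was normalized to controls, and IC50 was taken from 4-parameter fits.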

[1] = tested on: cap-dependent translation in Flp-In-293 reporter cells; experiment: Cellular cap-dependent translation inhibition assay (dual luciferase assay, DLA; Fluc/Rluc ratio, 24 hours); assay type: cell-based; settings: dual luciferase assay, Flp-In-293 reporter cells, 24 hours, Fluc/Rluc ratio, read-out: DLA 205 IC50
[2] = tested on: COLO 205 colorectal tumor cells; experiment: Tumor cell viability inhibition assay (CellTiter-Glo 2.0, 72 hours); assay type: cell-based; settings: COLO 205 cell viability
Outline: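 COLO 205 cells (1500/well, RPMI-1640 + 10% FBS) exposed for 72 h to an 11-point, 4-fold dilution series; cellular ATP read by CellTiter-Glo 2.0 luminescence. Data normalized to DMSO and maximum-inhibition controls; IC50 from 4-parameter curve fit.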

[3] = tested on: cyclin D1 protein levels in COLO 205 cells; experiment: Cyclin D1 cellular inhibition assay (HTRF, 6 hours); assay type: cell-based; settings: 6 hours of compound treatment, Cyclin D1 protein levels by HTRF, read-out: COLO 205 6 h Cyclin D1 TR-FRET IC50
Outline: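 COLO 205 cells in RPMI-1640 with 10% FBS treated 6 h with 11-point compound dilutions at 1% DMSO final. Lysates assayed for cyclin D1 by HTRF. Signal normalized to DMSO and maximum-inhibition controls, with IC50 from 4-parameter fit.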

SMILES	pIC50 (human eIF4E protein)	pIC50 [1]	pIC50 [2]	pIC50 [3]	pIC50 ([1]; Homo sapiens, Flp-In-293, 24 h)	pIC50 ([2]; Homo sapiens, COLO 205, 72 h)	pIC50 ([3]; Homo sapiens, COLO 205, 6 h)
Cc1cc(-c2cc(Cl)ccc2OCCn2c(C)nc3c(c2=O)CC(N(CC2CC(F)(F)C2)C2CC2)CC3)c2scc(C(=O)NS(C)(=O)=O)c2n1 (single isomer, unassigned) [Compound 261]	> 7.00	> 6.00	> 5.30	4.70 to 5.30			
Cc1cc(-c2cc(Cl)ccc2OCCn2c(C)nc3c(c2=O)CC(N(CC2CC(F)(F)C2)C2CC2)CC3)c2scc(C(=O)O)c2n1 (single isomer, unassigned) [Compound 263]	> 7.00	> 6.00	> 5.30	> 5.30			
Cc1nc2c(c(=O)n1CC#Cc1ccc(Cl)cc1-c1ccnc3c(C(=O)O)csc13)C[C@H](N1CC[C@@H](F)C1)CC2 (single isomer, unassigned) [Compound 326]	> 7.00				> 6.00	> 5.30	> 5.30
Cc1cc(-c2cc(Cl)ccc2OCCn2c(C)nc3c(c2=O)C[C@H](N2CC[C@@H](F)C2)CC3)c2scc(C(=O)O)c2n1 (single isomer, unassigned) [Compound 328]	> 7.00				> 6.00	> 5.30	> 5.30
Cc1nc2c(c(=O)n1CCOc1ccc(Cl)cc1-c1cccc(C(=O)O)c1)CC(N(C)C)CC2 (centres unmarked) [Compound 1, 3-[5-chloranyl-2-[2-[6-[di(methyl)amino]-2-methyl-4-oxidanylidene-5,6,7,8-tetrahydroquinazolin-3-yl]ethoxy]phenyl]benzoic acid]	> 7.00				> 6.00	4.70 to 5.30	4.70 to 5.30
Cc1cc(-c2cc(Cl)ccc2OCCn2c(C)nc3c(c2=O)CC(N(C)C)CC3)c2scc(C(=O)O)c2n1 (centres unmarked) [Compound 3, 7-[5-chloranyl-2-[2-[6-[di(methyl)amino]-2-methyl-4-oxidanylidene-5,6,7,8-tetrahydroquinazolin-3-yl]ethoxy]phenyl]-5-methyl-thieno[3,2-b]pyridine-3-carboxylic acid; 2,2,2-tris(fluorenyl)acetic acid]	> 7.00				> 6.00	> 5.30	> 5.30
Cc1cc(-c2cc(Cl)ccc2OCCn2c(C)nc3c(c2=O)CC(N2CCCCC2)CC3)c2scc(C(=O)O)c2n1 (centres unmarked) [Compound 11]	> 7.00				> 6.00	> 5.30	> 5.30
Cc1cc(-c2cc(Cl)ccc2OCCn2c(C)nc3c(c2=O)CC(N(C)CC2(C)COC2)CC3)c2scc(C(=O)O)c2n1 (centres unmarked) [Compound 18]	> 7.00				> 6.00	> 5.30	> 5.30
Cc1cc(-c2cc(Cl)ccc2OCCn2c(C)nc3c(c2=O)CC(N2CCCCC2)CC3)c2scc(C(=O)NS(C)(=O)=O)c2n1 (centres unmarked) [Compound 31]	> 7.00				> 6.00	> 5.30	> 5.30
Cc1cc(-c2cc(Cl)ccc2OCCn2c(C)nc3c(c2=O)CC(N(C)C2CC2)CC3)c2scc(C(=O)O)c2n1 (centres unmarked) [Compound 46]	> 7.00				> 6.00	> 5.30	> 5.30
Cc1cc(-c2cc(Cl)ccc2OCCn2c(C)nc3c(c2=O)CC(N(C)C2CC2)CC3)c2scc(C(=O)NS(C)(=O)=O)c2n1 (centres unmarked) [Compound 51]	> 7.00				> 6.00	> 5.30	> 5.30
